# Experimental data reported in patent publication US11332430B1, “Pleuromulin lauric acid ester with antibacterial activity and a method of preparing the same” (priority 2021, dated 2022).
# How the values were obtained:
# MRSA-206 = experiment: paper diffusion method drug sensitivity test, MRSA-206; type: cell-based, Staphylococcus aureus; details: 30 μg/tablet, 37° C., 24 h, ≥17 mm sensitive, 15-16 mm intermediary, ≤14 mm drug resistance
# MRSA-575 = experiment: paper diffusion method drug sensitivity test, MRSA-575; type: cell-based, Staphylococcus aureus; details: 30 μg/tablet, 37° C., 24 h, ≥17 mm sensitive, 15-16 mm intermediary, ≤14 mm drug resistance
# Description: (§1) The antimicrobial efficacy was determined by a paper diffusion method drug sensitivity test.
# (§2) Experimental strains: multi-resistant Staphylococcus aureus 171, multi-resistant Staphylococcus aureus 575, multi-resistant Staphylococcus aureus 596. The experimental strain was identified by Huashan Hospital Affiliated to Fudan University (Institute of Antibiotic of Fudan University).
# (§3) Drug sensitive paper: The drug sensitive paper is a special drug sensitive paper with a diameter of 6.35 mm and a water absorption of 0.02 mL. The control was vancomycin (30 μg/tablet); the test compounds were pleuromulin (30 μg/tablet), lauric acid (30 μg/tablet) and pleuromulin lauric acid ester (30 μg/tablet).
# (§4) The experimental strains were inoculated in non-selective medium and placed in air at 37° C. for 24 h. A single colony that grows well and inoculate it into broth medium was incubate at 35° C.±2° C. for 6 hours, and LA broth medium was used to calibrate the concentration of the bacterial solution to 0.5 Mie turbidimetric tube (1.5×10^8 CFU/mL). A bacterial suspension was obtained.
# (§5) LB dry powder was weighed, sterilized at 103.4 Kpa, 121.3° C. high-pressure steam for 15 min, and then placed it in a 40° C.-50° C. water bath. A sterile empty plate (inner diameter 9 cm) was placed on the surface of the ultra-clean table water table, and […] was poured to the plate. The thickness of each plate was 3 mm to 4 mm. After the plate was cooled at room temperature, it was stored in the refrigerator at 2° C.-8° C. A sterile cotton swab was used to dip the bacterial solution and ti evenly coat the surface of the LB plate 3 times. After inoculation of the bacterial suspension, the LB plate was dried at room temperature for 3 min to 5 min. Sterile forceps were used to closely attach the antibacterial drug paper to the dish. The dish was put upside down and placed in a 37° C. incubator for 24 h. The results were observed by measuring the diameter. Taking 0.5% DMSO solution as a negative control, the antibacterial activity is expressed by the diameter of the inhibition zone. The inhibition zone ≥17 mm, sensitive; the inhibition zone of 15 mm-16 mm, intermediary; the inhibition zone ≤14 mm, drug resistance.
# MRSA-596 = experiment: paper diffusion method drug sensitivity test, MRSA-596; type: cell-based, Staphylococcus aureus; details: 30 μg/tablet, 37° C., 24 h, ≥17 mm sensitive, 15-16 mm intermediary, ≤14 mm drug resistance
# Description: as §1, §2, §3, §4, §5
# [1] = system: multi-drug resistant Staphylococcus aureus 206, 575, 596; experiment: paper diffusion method drug sensitivity test, summary over the strains; type: cell-based; details: 30 μg/tablet
# Description: as §1, §2, §3, §4, §5
# [2] = listed as Pleuromutilin lauric acid derivative
Structure (SMILES),Zone of inhibition (MRSA-206) [mm],Zone of inhibition (MRSA-575) [mm],Zone of inhibition (MRSA-596) [mm],inhibitory effect on drug-resistant bacteria (in words) [1],Zone of inhibition (MRSA-575; [2]),"inhibitory effect on drug-resistant bacteria (in words) [1, 2]"
"CCCCCCCCCCCC(=O)O [Laurie acid, Lauric acid]",0,0,0,no inhibitory effect,–,–
C=C[C@]1(C)C[C@@H](OC(=O)CO)[C@]2(C)[C@H](C)CC[C@]3(CCC(=O)[C@H]32)[C@@H](C)[C@@H]1O [Pleuromulin],0,0,0,no inhibitory effect,–,–
"C=C[C@]1(C)C[C@@H](OC(=O)COC(=O)CCCCCCCCCCC)[C@]2(C)CC[C@@H](C)[C@@]3(CCC(=O)[C@@H]23)[C@@H](C)[C@@H]1O [Pleuromulinlauric acid ester, 2-(((3aS,4R,5S,6S,8R,9R,9aR,12R)-5-hydroxy-4,6,9,12-tetramethyl-1-oxo-6-vinyldecahydro-3a,9-propanocyclopenta[8]annulen-8-yl)oxy)-2-oxoethyl Dodecanoate]",13,25,12,excellent antibacterial activity,up to 25 mm,strong inhibitory effects
CN[C@H](CC(C)C)C(=O)N[C@H]1C(=O)N[C@@H](CC(N)=O)C(=O)N[C@H]2C(=O)N[C@H]3C(=O)N[C@H](C(=O)N[C@H](C(=O)O)c4cc(O)cc(O)c4-c4cc3ccc4O)[C@H](O)c3ccc(c(Cl)c3)Oc3cc2cc(c3O[C@@H]2O[C@H](CO)[C@@H](O)[C@H](O)[C@H]2O[C@H]2C[C@](C)(N)[C@H](O)[C@H](C)O2)Oc2ccc(cc2Cl)[C@H]1O [Vancomycin],15,17,23,–,–,–
